According to patent US20060258716A1, “Methods and compositions for the treatment of helicobacter pylori-associated diseases using endoperoxide bridge-containing compounds” (priority 2003, published 2006):
≈ marks a conversion by molar mass, not a printed value.

What was measured:
[1] = system: E. coli strains defective in DNA-gyrase enzyme; conditions: cited from earlier work
[2] = system: wild type of E. coli having intact DNA gyrase genes; conditions: cited from earlier work
[3] = system: H. pylori; assay: Anti-Helicobacter activity of artesunate after pre-incubation in simulated gastric fluid; format: cell-based; conditions: 1 mg/ml pre-incubated in SGF pH 1.2 at 37° C. up to 24 h, cultures then exposed 36 h, FIG. 6
Protocol: Artesunate (1 mg/ml) was pre-incubated in simulated gastric fluid (SGF, pH 1.2) or in bacterial broth medium (BBM, natural pH) at 37° C. for various time periods (1, 2, 4, 6, and 24 hours). After the pre-incubation, bacterial cultures (0.01 O.D) were exposed for 36 h to culture medium containing the pre-incubated artesunate. The effect of artesunate on bacterial growth was then determined by spectrophotometer.

[4] = system: H. pylori; assay: Timed artesunate exposure and wash-out, regrowth of H. pylori cultures; format: cell-based; conditions: 0.625 or 6.25 mM, exposure 0.5-18 hours, then 36 hours artesunate-free medium, FIG. 5
Protocol: Artesunate (0.625 or 6.25 mM) was added to bacterial cultures (0.2 O.D.600) for various time points (0.5, 1, 2, 4, 6, and 18 hours). Artesunate was then washed out from the cultures by precipitation of the bacteria and washing in PBS, after which bacteria were re-suspended in a fresh artesunate-free medium. Bacteria were maintained in artesunate-free medium for additional 36 hours and bacterial growth was then determined by spectrophotometer.

[5] = system: H. pylori bacterial strain SS1; assay: H. pylori-infected mice, colony forming units from homogenized stomach; format: in vivo; conditions: oral 50 mg/kg 3 times/day for 8 days, day 4 and 8, versus placebo, FIG. 7
Protocol: The effect of artesunate against H. pylori infection in vivo was tested in H. pylori-infected mice. Mice were infected by inoculation (×3/day) with suspension of 10^9 H. pylori bacterial strain SS1. Two weeks following the infection, mice were treated orally with 50 mg/kg artesunate 3 times/day for 8 days. The level of bacterial infection was determined by counting the number of colony forming units derived from the homogenized stomach on day 4 and 8 of the treatment.

[6] = system: H. pylori; assay: Growth inhibition of H. pylori (MIC), growth monitored by spectrophotometer; format: cell-based; conditions: for minimal inhibitory concentration (MIC): Example 4, FIG. 4
Protocol: To test the effect of artemisinin on the growth of H. pylori, freshly prepared bacteria were exposed to various concentrations of artemisinin. Bacteria were grown for fixed incubation times and their growth levels were monitored using a spectrophotometer. The growth of treated bacteria was compared to that of non-treated bacteria.
To test the effectivity of artemisinin derivatives on the growth of H. pylori, freshly prepared bacteria were exposed to various concentrations of artemisinin derivatives. Bacteria were grown for fixed incubation times and their growth levels were monitored using a spectrophotometer. The growth of treated bacteria was compared to that of non-treated bacteria.

[7] = system: ulcerative lesion index; conditions: lesions produced by ethanol and indomethacin in rats; cited from earlier work
[8] = system: P. acnes; assay: MBC against P. acnes; format: cell-based
Protocol: (§1) To determine whether the effect of artemisinin is specific to H. pylori, the ability of artemisinin to inhibit the growth of E. coli and P. acnes was tested. In contrary to H. pylori, which is a microaerophilic bacterium, E. coli is an aerobic intestinal bacterium, and P. acnes is an anaerobic dermal bacterium. These bacteria were exposed to various concentrations of artemisinin, and MIC and MBC values were determined.

[9] = system: cancer cells; conditions: cited from earlier work
[10] = system: Lactobacillus acidophilus; assay: MBC against Lactobacillus acidophilus; format: cell-based; conditions: L. acidophilus
Protocol: (§2) The effect of artemisinin on the growth and viability of Lactobacillus acidophilus (L. acidophilus) that is part of the normal flora of the intestine was examined. L. acidophilus bacteria were grown with various concentration of artemisinin and its effect was determined.

[11] = system: Lactobacillus acidophilus; assay: MIC / growth of Lactobacillus acidophilus; format: cell-based
Protocol: as §2

[12] = system: H. pylori; assay: Minimal bactericidal concentration: treated H. pylori plated on solid medium, colonies counted; format: cell-based; conditions: no colony-forming units on solid medium
Protocol: To further determine the antibacterial effect of artemisinin, H. pylori maintained in the presence of various concentrations of artemisinin were plated on solid medium and the number of single colonies was monitored.

[13] = system: H. pylori; assay: Combined effect of artemisinin and omeprazole on H. pylori growth; format: cell-based; conditions: 0.5 μg/ml artemisinin alone, 3 days
Protocol: In order to explore the possible synergism between artemisinin and a PPI, the growth of bacteria in the presence of artemisinin, omeprazole or both was examined. H. pylori bacteria were grown in the presence of 3-24 μg/ml omeprazole or 0.5-4 μg/ml of artemisinin. Bacterial cultures were incubated in micro-aerophilic conditions. The combined effect of artemisinin and omeprazole on bacterial growth was tested using a spectrophotometer after 3 days.

[14] = system: H. pylori exhibiting resistance to clarithromycin (CLR) and metronoidazole; assay: Growth of clarithromycin- and metronidazole-resistant H. pylori strains; format: cell-based; conditions: 2.5-10 μM artemisinin, 3 days, micro-aerophilic conditions, FIG. 2
Protocol: Unsuccessful therapy in patients infected with H. pylori is frequently correlated to clarithromycin and metronidazole resistance. […] Bacterial cultures were incubated in micro-aerophilic conditions. The effect of clarithromycin or artemisinin on bacterial growth was tested using a spectrophotometer after 3 days.

[15] = system: E. coli; assay: MBC against E. coli; format: cell-based
Protocol: as §1

[16] = system: anaerobic bacteria; conditions: cited from earlier work

For `CCO[C@@H]1O[C@@H]2O[C@]3(C)CC[C@H]4[C@H](C)CC[C@@H]([C@H]1C)[C@@]24OO3` [α-arteether], the Growth inhibition [1] is given as “inhibits the growth” and the Sensitivity [2] is given as “not sensitive”.

With `C[C@H]1[C@H](OC(=O)CCC(=O)O)O[C@@H]2O[C@@]3(C)CC[C@H]4[C@H](C)CC[C@@H]1[C@@]24OO3` [artesunate] the “Anti-Helicobacter activity after pre-incubation in low pH” value [3] was “preserved”, the “Bacterial growth after wash-out of artesunate” value [4] was “irreversible bacterial eradication” and the “Number of colony forming units from homogenized stomach” value [5] was “efficiently reduced the number of colony forming units”.

For `CCO[C@H]1O[C@@H]2O[C@@]3(C)CC[C@H]4[C@H](C)CC[C@@H]([C@H]1C)[C@@]24OO3` [arteether], the “minimal inhibitory concentration (MIC)” value [6] was 0.15 to 0.3 µM.

For dihydro-epideoxyarteannuin B, the “Gastric cytoprotection (ulcerative lesion index)” value [7] is given as “provided gastric cytoprotection”.

In the case of `CO[C@H]1O[C@@H]2O[C@@]3(C)CC[C@H]4[C@H](C)CC[C@@H]([C@H]1C)[C@@]24OO3` [artemether], the “minimal inhibitory concentration (MIC)” value [6] is reported as 0.3 to 0.6 µM.

For `C[C@@H]1CC[C@H]2[C@@H](C)C(=O)O[C@@H]3O[C@@]4(C)CC[C@@H]1[C@]32OO4` [artemisinin], the “MBC (minimal bactericidal concentration)” value [8] is listed as >5000 µM, the “MIC (minimal inhibitory concentration)” value ([6]; Example 1, Table 1) is listed as 2.5 µM (≈ 0.706 µg/mL) and the “Concentration range toxic to cancer cells in vitro” value [9] is listed as 20 to 180 µM. For the same compound, the “MBC (minimal bactericidal concentration)” value [10] was >5000 µM, the “MIC (minimal inhibitory concentration)” value ([11]; L. acidophilus) was >5000 µM and the “Effect on growth of L. acidophilus” value ([11]; any used concentration below 5 mg/ml) was “did not affect the growth”. For the same compound, the “MBC (minimal bactericidal concentration)” value [12] was 125 to 250 µM, the “Bacterial growth, artemisinin alone” value [13] was “not effective alone” and the “Sensitivity of clarithromycin- and metronidazole-resistant H. pylori strains” value [14] was “significant sensitivity”. For the same compound, the “MBC (minimal bactericidal concentration)” value [15] was >5000 µM and the Anti-microbial activity [16] was “possesses an anti-microbial activity”.

For `C[C@@H]1CC[C@H]2[C@@H](C)C(=O)O[C@@H]3O[C@@]4(C)CC[C@@H]1[C@]32O4` [deoxyartemisinin], the “Gastric cytoprotection (ulcerative lesion index)” value [7] is listed as “provided gastric cytoprotection”.
